From patent US20070185197A1, “Phenol derivative, medicinal composition containing the same, and medicinal use thereof” (priority 2004, published 2007)

Target: T1, human SGLT2 (Homo sapiens, UniProt P31639)
T1 construct: expressed in transfected cells
T1 sequence (P31639 1-672): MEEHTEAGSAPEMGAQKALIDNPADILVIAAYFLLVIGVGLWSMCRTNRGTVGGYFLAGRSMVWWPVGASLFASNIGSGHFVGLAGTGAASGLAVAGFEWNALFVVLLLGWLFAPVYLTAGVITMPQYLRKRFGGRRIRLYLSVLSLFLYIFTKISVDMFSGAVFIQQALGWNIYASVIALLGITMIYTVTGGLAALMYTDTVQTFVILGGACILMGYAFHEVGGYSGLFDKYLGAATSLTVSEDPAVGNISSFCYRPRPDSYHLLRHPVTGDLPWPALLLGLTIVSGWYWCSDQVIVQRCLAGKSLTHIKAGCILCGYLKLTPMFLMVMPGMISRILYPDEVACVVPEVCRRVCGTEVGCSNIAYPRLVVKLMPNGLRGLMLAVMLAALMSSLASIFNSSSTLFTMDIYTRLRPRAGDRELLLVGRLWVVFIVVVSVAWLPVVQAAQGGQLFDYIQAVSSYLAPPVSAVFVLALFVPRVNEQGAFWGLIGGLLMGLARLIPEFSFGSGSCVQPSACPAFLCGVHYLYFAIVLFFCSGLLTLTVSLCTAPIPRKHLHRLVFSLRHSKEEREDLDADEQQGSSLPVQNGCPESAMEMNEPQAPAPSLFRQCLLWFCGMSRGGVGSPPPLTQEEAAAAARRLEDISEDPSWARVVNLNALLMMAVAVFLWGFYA
Assay: Assay for inhibitory effects on human SGLT2 activity (uptake of methyl-α-D-glucopyranoside in CS2-5E cells)
Format: cell-based
Conditions: inhibition of 14C-labeled α-MG uptake (1 mM), CHO-K1 cells stably expressing human SGLT2 (CS2-5E), 37° C., 1 hour
Experimental: Assay for Inhibitory Effects on Human SGLT2 Activity 1) Cloning and Construction of the Vector Expressing Human SGLT2 The cDNA library was prepared for PCR amplification by reverse transcription from total RNA deprived from human kidney (Ori gene) using oligo-dT as a primer. Using this cDNA library as a template, the DNA fragment coding 2 to 2039 bp of human SGLT2 (ACCESSION: M95549, M95299), which was reported by R. G. Wells et al., was amplified by PCR method and inserted into the multi-cloning site of pcDNA3.1 (−) (Invitrogen). The DNA sequence inserted was perfectly matched to the previously reported sequence. 2) Establishment of Cell Line Stably Expressing Human SGLT2 The expression vector of human SGLT2 was digested by Sca I into a linear DNA. The linear DNA was transfected into CHO-K1 cells by means of lipofection (Effectene Transfection Reagent: QIAGEN). Neomycin resistant cell lines were selected by culture in the medium containing G418 (1 mg/mL, LIFE TECHNOLOGIES), and then the activity against the uptake of methyl-α-D-glucopyranoside was measured by the method described below. […] Radioactivity was measured by means of micro-scintillation counter TopCount (Packard). One hundred % was set to the difference between the uptake in the control group and the basal uptake, and the uptake of methyl α-D-glucopyranoside at each drug concentration were calculated. […]

IC50: 0.086 µM
SMILES: COc1ccc(Cc2ccccc2O[C@@H]2O[C@H](CF)[C@@H](O)[C@H](O)[C@H]2O)cc1 [Example 1, 2-(4-Methoxybenzyl)phenyl 6-deoxy-6-fluoro-β-D-glucopyranoside]
